According to EP2386565A2, “Compounds and methods to inhibit or augment an inflammatory response” (Cambridge Enterprise Ltd., priority 1999, dated 2000):
“And” between values parts separate entries of the source, which are not always exact repeats. Equal entries are not always repeated. Positions of bridges follow the written chain, without caps; N, C: chain ends. Non-standard residues stand in square brackets, D forms with d. Residues, ends and D or L forms follow the SMILES beside them. No end group written: not given here.

Experiments:
[1] = test system: chemokine-induced THP-1 migration; assay: THP-1 trans-well migration assay, several chemokines together (averages, selectivity, pan-chemokine statements); type: cell-based, human; conditions: for effect on chemokine-induced THP-1 migration (in words): MCP-1, MIP1α, IL-8 and SDF1α
Experimental: To determine whether an agent inhibits a chemokine-induced activity, such as macrophage recruitment, varying amounts of the agent are mixed with cells in the presence of a known chemoattractant. […] Chemokine (such as MCP-1, MIP1α, IL8 or SDF-1α), at a concentration known to cause significant migration of THP-1 cells in the trans-well migration assay, is placed in the lower compartment (Figure 1). Cells are then incubated at 37°C for a period sufficient to allow migration, e.g., 4 hours. After incubation, the cells are gently removed from the top of the filter with a pipette, 20 µl of 20 mM EDTA in simple PBS is added into each top well, and incubated for 20 minutes at 4°C. The filter is carefully flushed with media using a gentle flow, and removed. […] The media is carefully aspirated from each well, and the converted dye is solubilized by 20 µl of DMSO.
Chemotaxis was induced in a 96-well disposable chemotaxis chamber fitted with a 5 µM polycarbonate filter (PVP free, ChemoTX, Neuroprobe Inc., Cabin John). […] The framed filter was aligned with the holes in the corner of the filter frame and placed over the wells.
Peptides were dissolved in Milli Q water and then serially diluted in culture medium. In most cases, the serially diluted peptides were added to the upper compartment of the chemotaxis chamber. The chamber was incubated at 37°C in a humidified atmosphere of 5% CO2 for 4 hours.
After incubation, the cells were gently removed from the top of the filter with a pipette, 20 µl of 20 mM EDTA in PBS was added into each top well, and the mixture was incubated for 20 minutes at 4°C. The filter was then carefully flushed with media using a gentle flow, and removed. […] The curve was based on a two-fold dilution series of THP-1 cells (top standard 100,000 cells in 29 µl). […] The media was carefully aspirated from each well, and the converted dye was solubilized by 20 µl of DMSO.
Representative chemokines included […] ("CC"), MIP-1α and RANTES, and two alpha-chemokines ("CXC"), IL-8 and SDF-1α. Additionally, to determine the specificity ofpeptide 3(1-12)[MCP-1]
The number of pluses is a qualitative indicating of the activity of each peptide in each assay.

[2] = test system: HIV; type: cell-based; conditions: ns = not significant
[3] = test system: gp120; conditions: ns = not significant; >100 = ED50 not determined
Experimental: Binding assays. Cells (either Jurkat T-cells or THP-1 cells) were grown in RPMI 1640 medium supplemented with 10% fetal calf serum, 2 mM glutamine, 20 µM β-mercaptoethanol, 100 U/ml penicillin and 100 µg/ml streptomycin and maintained between 2 × 10^5 and 1 × 10^6 cells/ml. Prior to performing a binding assay, cells were spun out (100 × g; 4 minutes) and washed 3 times in ice-cold PBS. A volume of cell suspension in PBS containing 10^6 cells (for Jurkat cells) or 4 × 10^5 cells (for THP-1 cells) was pipetted into each well of a V-bottom 96-well plate (Gibco BRL) and spun out (100 x g; 4 minutes). Triplicate wells were then resuspended in 100 µl binding medium (PBS pH 7.2 containing 0.1% fatty acid-free bovine serum albumin (BSA)) containing labeled peptide in the presence or absence of various concentrations of unlabeled peptide. The plate was then incubated on ice for 90 minutes. Cells were washed 3 times with 380 µl of ice-cold PBS, spinning out the cells each time (100 × g; 4 minutes), and resuspended in 100 µl binding medium containing streptavidin-peroxidase (Amersham International) at 1:1000 dilution. Cells were incubated for a further 15 minutes on ice to allow labeling of any bound biotinylated peptide, then washed 4 times as above. Cells were then incubated with 200 µl TMB substrate (K-Blue, Bionostics) for 20 minutes at room temperature, and the reaction stopped by addition of 50 µl 2 M HCl. The plate was spun (3,000 × g; 3 minutes) and 200 µl of the colored product was transferred to an empty 96-well ELISA plate and the absorbance at 450 nm determined. For each assay, the absorbance of a blank reaction (no peptide added) was subtracted from all readings before further analysis.
Binding experiments with labeled peptide 2 were performed with 10 nM labeled peptide in each reaction.

[4] = test system: ovalbumin-induced pulmonary inflammation, IgE, IL-4 and recall responses; assay: Ovalbumin-induced asthma / hypersensitivity model; type: in vivo, mice; conditions: Group 4: Ova on days 8, 15, 18, 21 & 35, treat BID 14 days, sacrifice day 35 (recent Ova challenge), 0 µg/ml Ova

## CC[C@H](C)[C@H](NC(=O)[C@H](C)NC(=O)[C@H](CC(=O)O)NC(=O)[C@@H]1CCCN1C(=O)[C@H](CCC(N)=O)NC(=O)[C@H](C)N)C(=O)N[C@@H](CC(N)=O)C(=O)N[C@@H](C)C(=O)N1CCC[C@H]1C(=O)N[C@H](C(=O)N[C@H](C(=O)N[C@@H](CS)C(=O)N[C@@H](CS)C(=O)O)[C@@H](C)O)C(C)C [Peptide 1] (H-AQPDAINAPVTCC-OH; N-terminus and C-terminus assumed)
[1]; 100 µM, CC and CXC chemokines
  % inhibition at 100 µM of migration induced by any of the chemokines tested: ≤ 20%
[1]
  effect on chemokine-induced THP-1 migration (in words): no significant effect

## =cvaekpsksstirrysc= ([dC][dV][dA][dE][dK][dP][dS][dK][dS][dS][dT][dI][dR][dR][dY][dS][dC]; bridge 1-17 (inferred); not fully specified; printed as =cvaekpsksstirrysc=)
[2]
  % virus inhibition: ns
[3]
  gp120 ED-50 (µM): ns

## CSYRRITSSKSPKEAVC
[2]
  % virus inhibition: ns
[3]
  gp120 ED-50: >100 µM

## CC[C@@H](C)[C@H]1NC(=O)[C@@H](CCC(N)=O)NC(=O)[C@H](N)CSSC[C@H](C(N)=O)NC(=O)[C@@H](CC(C)C)NC(=O)[C@@H](CC(=O)O)NC(=O)[C@H]2CCCN2C(=O)[C@@H](CCCCN)NC(=O)[C@@H](CCC(N)=O)NC(=O)[C@@H](CCCCN)NC(=O)[C@@H](Cc2c[nH]c3ccccc23)NC1=O (H-[dC][dQ][dI][dW][dK][dQ][dK][dP][dD][dL][dC]-NH2; disulfide 1-11)
[4]
  IL-4 Assays, pg/ml IL-4, individual mice m1-m4: 2.61 pg/mL and 1.11 pg/mL and 5.08 pg/mL and 2.88 pg/mL
[4]; listed as CRD-Leu4Ile11Cys13 peptide 3(3-12)[MCP]
  Total IgM + IgG (1 week splenocyte cultures), individual mice m1-m4: 15.32 and 25.86 and 14.87 and 12.60
[1]
  effect on chemokine-induced THP-1 migration (in words): very similar ED50s
[1]; average inhibitory ED50 for THP-1 migration induced by each of the chemokines
  Average ED50: 100 nM
